Experimental findings from PubChem BioAssay AID200 (DTP/NCI, 2004) are described below.

Several values for one entry are separate records, joined by “and”; a condition that tells them apart may be missing. Equal entries are not always repeated. Toxic doses and inconclusive results are not listed.

The subject of the experiment is B6C3F1 mice, B16 melanoma ip, median survival T/C. Kind of experiment: NCI In Vivo Anticancer Drug Screen. Data for tumor model B16 Melanoma (intraperitoneal) in B6C3F1 mice. The conditions noted are these: endpoint: median survival time, schedule: Q01DX009 (ip), higher = longer survival. A digest of the protocol:
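Readout: survival or tumor size in treated mice relative to vehicle controls (T/C). Model uses transplantable tumors grown in mice.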

Setting [1] is: dose: 7.5 mg/kg/injection, vehicle: Klucel (hydroxypropylcellulose) (HPC).
The mark [2] stands for this setting: dose: 12.5 mg/kg/injection, vehicle: Klucel (hydroxypropylcellulose) (HPC).
Setting [3] is: dose: 25.0 mg/kg/injection, vehicle: Klucel (hydroxypropylcellulose) (HPC).
[4] abbreviates: dose: 25.0 mg/kg/injection, vehicle: saline with Tween-80.
Where [5] appears, read: dose: 50.0 mg/kg/injection, vehicle: saline with Tween-80.
[6] abbreviates: dose: 100.0 mg/kg/injection, vehicle: saline with Tween-80.
Where [7] appears, read: dose: 6.25 mg/kg/injection, vehicle: saline.
The mark [8] stands for this setting: dose: 12.5 mg/kg/injection, vehicle: saline.
Where [9] appears, read: dose: 25.0 mg/kg/injection, vehicle: saline.
[10] abbreviates: dose: 12.5 mg/kg/injection, vehicle: saline with Tween-80.
Setting [11] is: dose: 200.0 mg/kg/injection, vehicle: Klucel (hydroxypropylcellulose) (HPC).
Where [12] appears, read: dose: 50.0 mg/kg/injection, vehicle: saline.

As to `CNC(=O)Oc1ccc[nH]c1=O`, the T/C (dose: 16.0 mg/kg/injection, vehicle: saline with Tween-80) was 101 % of control; the T/C (dose: 32.0 mg/kg/injection, vehicle: saline with Tween-80) was 100 % of control; the T/C (dose: 64.0 mg/kg/injection, vehicle: saline with Tween-80) was 101 % of control; the T/C (dose: 128.0 mg/kg/injection, vehicle: saline with Tween-80) was 100 % of control; the T/C (dose: 256.0 mg/kg/injection, vehicle: saline with Tween-80) was 95 % of control.
For `S=c1nc[nH]c2nc[nH]c12`, the T/C by setting is: (dose: 6.25 mg/kg/injection, vehicle: Klucel (hydroxypropylcellulose) (HPC)) 100 % of control; under setting [1], 97 % of control; under setting [2], 94 % of control; under setting [3], 96 % of control.
Take `COC(COC(=O)N1CCN(C=O)CC1)C1=C(N2CC2)C(=O)C(C)=C(N2CC2)C1=O` (stereo unspecified): the T/C by setting is: (dose: 1.5 mg/kg/injection, vehicle: saline) 160 % of control and 194 % of control; (dose: 3.0 mg/kg/injection, vehicle: saline) 173 % of control and 234 % of control; (dose: 6.0 mg/kg/injection, vehicle: saline) 254 % of control.
With `CCCCC/C(C=C(C#N)C#N)=C/c1ccccc1`, the T/C under setting [4] was 111 % of control, the T/C under setting [5] is 106 % of control and the T/C under setting [6] was 123 % of control.
Take `CCC(C)Nc1ccc(N)cc1` (stereo unspecified): the T/C was 98 % of control (dose: 0.09 mg/kg/injection, vehicle: saline + Tween-80 + alcohol); 94 % of control (dose: 0.18 mg/kg/injection, vehicle: saline + Tween-80 + alcohol); 109 % of control (dose: 0.37 mg/kg/injection, vehicle: saline + Tween-80 + alcohol); 109 % of control (dose: 0.75 mg/kg/injection, vehicle: saline + Tween-80 + alcohol); 91 % of control (dose: 1.5 mg/kg/injection, vehicle: Klucel (hydroxypropylcellulose) (HPC)); 113 % of control (dose: 1.5 mg/kg/injection, vehicle: saline + Tween-80 + alcohol). Also, the T/C runs as follows: (dose: 3.0 mg/kg/injection, vehicle: Klucel (hydroxypropylcellulose) (HPC)) 111 % of control; (dose: 3.0 mg/kg/injection, vehicle: saline + Tween-80 + alcohol) 97 % of control; (dose: 6.0 mg/kg/injection, vehicle: Klucel (hydroxypropylcellulose) (HPC)) 96 % of control; (dose: 12.0 mg/kg/injection, vehicle: Klucel (hydroxypropylcellulose) (HPC)) 89 % of control.
As for `CCCCCCCCCCCCOCCCOP(=O)([O-])OCC[N+](C)(C)C`, the T/C runs as follows: (dose: 3.13 mg/kg/injection, vehicle: saline) 100 % of control; under setting [7], 100 % of control; under setting [8], 100 % of control; under setting [9], 91 % of control.
In the case of `CN(C)CC(O)c1cc2ccccc2c2ccccc12` (stereo unspecified), the T/C is, setting by setting: under setting [8], 103 % of control; under setting [9], 103 % of control.
Take `COc1ccc(S(=O)(=O)N=N/C=C2\C=CC=CN2O)cc1OC`: the T/C (dose: 3.0 mg/kg/injection, vehicle: saline with Tween-80) is 119 % of control; the T/C (dose: 3.12 mg/kg/injection, vehicle: saline with Tween-80) was 111 % of control; the T/C (dose: 6.0 mg/kg/injection, vehicle: saline with Tween-80) is 123 % of control; the T/C (dose: 6.25 mg/kg/injection, vehicle: saline with Tween-80) was 102 % of control; the T/C under setting [10] is 107 % of control; the T/C under setting [4] is 123 % of control. For the same compound, the T/C under setting [5] was 122 % of control.
`C=CCNC(=O)c1ccccc1SC(C)=O`: the T/C by setting is: (dose: 50.0 mg/kg/injection, vehicle: saline + Tween-80 + alcohol) 101 % of control; (dose: 100.0 mg/kg/injection, vehicle: saline + Tween-80 + alcohol) 112 % of control and 103 % of control; under setting [6], 91 % of control; (dose: 200.0 mg/kg/injection, vehicle: saline + Tween-80 + alcohol) 119 % of control; (dose: 200.0 mg/kg/injection, vehicle: saline with Tween-80) 104 % of control; (dose: 400.0 mg/kg/injection, vehicle: saline + Tween-80 + alcohol) 114 % of control. The T/C (dose: 400.0 mg/kg/injection, vehicle: saline with Tween-80) was 116 % of control.
Take `ClCCCCCCCCCCc1ccccc1`: the T/C under setting [2] was 91 % of control; the T/C under setting [3] was 94 % of control; the T/C (dose: 50.0 mg/kg/injection, vehicle: Klucel (hydroxypropylcellulose) (HPC)) is 91 % of control; the T/C (dose: 100.0 mg/kg/injection, vehicle: Klucel (hydroxypropylcellulose) (HPC)) was 93 % of control; the T/C under setting [11] was 90 % of control; the T/C (dose: 400.0 mg/kg/injection, vehicle: Klucel (hydroxypropylcellulose) (HPC)) is 89 % of control.
As for `O=C(O)[C@H](Cc1ccccc1)N1C(=O)c2ccccc2C1=O`, the T/C (dose: 50.0 mg/kg/injection, vehicle: DMSO) is 96 % of control; the T/C (dose: 100.0 mg/kg/injection, vehicle: DMSO) was 99 % of control; the T/C (dose: 200.0 mg/kg/injection, vehicle: DMSO) is 99 % of control; the T/C (dose: 800.0 mg/kg/injection, vehicle: DMSO) is 88 % of control.
`CNC(=O)O/N=C(\CN=[N+]=[N-])C(C)(C)C`: the T/C reads like this: (dose: 0.12 mg/kg/injection, vehicle: saline) 104 % of control; (dose: 0.25 mg/kg/injection, vehicle: saline) 99 % of control; (dose: 0.5 mg/kg/injection, vehicle: saline) 118 % of control; (dose: 1.0 mg/kg/injection, vehicle: saline) 101 % of control.
Turning to `CCCCC(NC(=O)OCc1ccccc1)C(=O)NC(Cc1c[nH]c2ccccc12)C(=O)O` (stereo unspecified), the T/C under setting [11] was 103 % of control.
As for `CC(=O)OCC1OC(n2cc(CBr)nn2)C(OC(C)=O)C(OC(C)=O)C1OC(C)=O` (stereo unspecified), the T/C is 100 % of control (dose: 3.12 mg/kg/injection, vehicle: saline); 103 % of control under setting [7]; 102 % of control under setting [8]; 113 % of control and 114 % of control under setting [9]; 117 % of control and 119 % of control under setting [12]; 105 % of control (dose: 100.0 mg/kg/injection, vehicle: saline).
For `N=c1c(C(=O)OCc2ccccc2)ncc(CCl)n1O`, the T/C was 94 % of control under setting [4], 95 % of control under setting [5] and 99 % of control under setting [6].
For `O=C(CCCCCCC(=O)ON1C(=O)CCC1=O)ON1C(=O)CCC1=O`, the T/C under setting [4] was 99 % of control, the T/C under setting [5] is 96 % of control and the T/C under setting [6] was 103 % of control.
`Nc1nc(SCc2ccccc2Cl)c2ncn(C3OC(CO)C(O)C3O)c2n1` (stereo unspecified): the T/C runs as follows: under setting [10], 106 % of control; under setting [4], 90 % of control.
For `CNC(=O)ON(C(C)=O)C(=O)NC`, the T/C under setting [8] was 102 % of control, the T/C under setting [9] was 107 % of control and the T/C under setting [12] was 102 % of control.
As for `CCN(CC)CCCC(C)Nc1c2ccc(Cl)cc2nc2ccc(OC)cc12` (stereo unspecified), the T/C by setting is: (dose: 3.75 mg/kg/injection, vehicle: Klucel (hydroxypropylcellulose) (HPC)) 102 % of control; under setting [1], 98 % of control; (dose: 15.0 mg/kg/injection, vehicle: Klucel (hydroxypropylcellulose) (HPC)) 109 % of control; (dose: 30.0 mg/kg/injection, vehicle: Klucel (hydroxypropylcellulose) (HPC)) 121 % of control.
